Key:
Type in all cases: cell-based
[1] = tested on: human microvascular endothelial cells (HMVEC); assay: Induction of endothelial heparanase protein by cytokines (immunoblot); details: TNFα
Description: Experiments were done on human microvascular endothelial cells (HMVEC) grown in 48-well plates (˜90% confluency). To induce heparanase activity, culture media was replaced with 200 μl Dulbecco's modified Eagle's medium (DMEM) complemented with 1% bovine serum albumin (BSA) and 100 ng biotinylated HS with or without stimulants (5 ng/ml TGFα, 1 ng/ml IL 1β, or 200 ng/ml VEGF). Cells were incubated in a cell culture incubator for 16-18 hours and the entire 200 μmedia was added to a streptavidin-coated plate and followed by standard color development assay as described in Example 2. The secreted proteins were analyzed by SDS-PAGE and heparanase protein was detected by immunoblotting using polyclonal anti-human heparanase antibody.
Human microvascular endothelial cells (HMVEC) were grown in 48-well plates (˜90% confluency). To induce heparanase activity, culture media was replaced with 200 μl Dulbecco's modified Eagle's medium (DMEM) complemented with 1% bovine serum albumin (BSA) and 100 ng biotinylated HS with 0, 0.02, 1.5 and 5 ng/ml of TNFα. The secreted heparanase was detected by immunoblotting the culture media with anti-human heparanase antibody.

[2] = tested on: human microvascular endothelial cells (HMVEC); assay: TNFα-induced heparanase secretion by endothelial cells with signaling inhibitors (immunoblot); details: HMVEC incubated with TNFα and inhibitor for 16 h; wortmannin 0.1 and 0.5 μM, Ly294002 10 and 50 μM, SN50 10 μM, FPT inhibitor III 100 μM, PD98059 5 μM, SB203580 650 nM, ZM336372 200 nM, caspase inhibitor III 10 μM; FIG. 5
Description: Human microvascular endothelial cells (HMVEC) were grown in 48-well plates (˜90% confluency). To induce heparanase activity, culture media was replaced with 200 μl Dulbecco's modified Eagle's medium (DMEM) complemented with 1% bovine serum albumin (BSA), 100 ng biotinylated HS and TNFα with or without (FIG. 5A) P13 kinase inhibitors (wortmannin, 0.1 μM and 0.5 μM, or Ly294002, 10 μM and 50 μM), (FIG. 5B) NFκB inhibitor (SN50, 10 μM), several MAP kinase inhibitors (FIG. 5C)—either 100 μM FPT inhibitor III (FPT, inhibits Ras processing in cells), 5 μM MAP kinase (MEK), inhibitor PD98059 (PD), 650 nM p38 kinase inhibitor SB203580 (SB), 200 nM c-Raf inhibitor ZM336372 (ZM); or an inhibitor cocktail (Cl) that contains all of the four inhibitors; or broad-spectrum caspase inhibitor III (Casp-I, 10 μM) (FIG. 5D). The cells were incubated with TNFα and the inhibitors for 16 h. The culture media was collected and the secreted proteins were analyzed by SDS-PAGE and heparanase protein was detected by immunoblotting using polyclonal anti-human heparanase antibody.

endothelial cells = assay: Heparanase expression in endothelial cells induced by lysolecithin

Question: TNFα was tested. Which “induction of heparanase in endothelial cells” value [1] did it give?
Answer: induces heparanase

Question: For COc1cccc(-c2cc(=O)c3ccccc3o2)c1N [PD98059], which “inhibition of TNFα-induced heparanase secretion” value (from here on “inhibition”) [2] is on record?
Answer: do not inhibit

Question: Which “induction of heparanase expression in endothelial cells” value (endothelial cells) does the source give for lysolecithin here?
Answer: induces heparanase expression

Question: For COC(=O)CC(NC(=O)OC(C)(C)C)C(=O)CF (stereo not drawn) [caspase inhibitor III], which “inhibition” value [2] is on record?
Answer: blocked heparanase secretion

Question: How did the “inhibition” value [2] turn out when Cc1ccc(NC(=O)c2cccc(N(C)C)c2)cc1NC(=O)c1ccc(O)cc1 [ZM336372] was run?
Answer: do not inhibit

Question: For C[S+]([O-])c1ccc(-c2nc(-c3ccncc3)c(-c3ccc(F)cc3)[nH]2)cc1 (stereo not drawn) [SB203580], which “inhibition” value [2] is on record?
Answer: do not inhibit
